Measurements from the RepoRT retention time repository.

Assay: RP, Waters ACQUITY Premier BEH C18, 100 × 2.1 mm, 1.7 µm, 40 °C, 0.3 to 0.4 mL/min, estimated dead time 0.73 min; A: water + 0.1% formic acid; B: acetonitrile + 0.1% formic acid; gradient (min/%B) 0/0.5 0.1/0.5 10/80 10.1/99.5 12/0.5 12.1/0.5 14.5/0.5
Settings: stereoisomer not certain

`O=c1c(-c2ccc(O)cc2)coc2cc(O)cc(O)c12` [GENISTEIN] and `O=c1c(-c2ccc(O)cc2)coc2cc(O)ccc12` [DAIDZEIN] are within 1.5-fold of each other in LC retention time: 6.07 min for the first, 5.4 min for the second.

`N[C@@H](Cc1ccc(O)c([N+](=O)[O-])c1)C(=O)O` [3-NITRO-L-TYROSINE] and `NC(Cc1c[nH]c2ccc(O)cc12)C(=O)O` (centres undefined) [5-HYDROXYTRYPTOPHAN] are within 1.5-fold of each other in LC retention time: 3.8 min for the first, 3.46 min for the second.

`Cc1cnc(=O)[nH]c1N` [5-METHYLCYTOSINE] and `Cn1cnc2[nH]c(=O)[nH]c(=O)c21` [7-METHYLXANTHINE] are within 1.5-fold of each other in LC retention time: 0.94 min for the first, 1.2 min for the second.

First: Nc1ncnc2nc[nH]c12 [ADENINE]
Second: CSc1ncnc2nc[nH]c12 [THIOPURINE S-METHYLETHER]
The LC retention time of the first is 3.3-fold lower: 1.3 min for the first, 4.31 min for the second.

First: CNCC(O)c1ccc(O)cc1 [D-SYNEPHRINE]
Second: O=C(O)C(O)Cc1ccc(O)cc1 (centres undefined) [HYDROXYPHENYLLACTATE]
The LC retention time of the first is 4.4-fold lower: 0.927 min for the first, 4.05 min for the second.

First: NC(Cc1cc(I)c(Oc2cc(I)c(O)c(I)c2)c(I)c1)C(=O)O (centres undefined) [THYROXINE]
Second: Nc1cc(O)cc(C(=O)O)c1 [3-AMINO-5-HYDROXYBENZOATE]
The LC retention time of the first is 4.4-fold higher: 6.62 min for the first, 1.49 min for the second.

`C=CC1CN2CCC1CC2C(O)c1ccnc2ccc(OC)cc12` (centres undefined) [QUININE] and `COc1ccc2[nH]cc(CCN)c2c1` [5-METHOXYTRYPTAMINE] are within 1.5-fold of each other in LC retention time: 3.88 min for the first, 3.73 min for the second.

`CN(CC(=O)O)C(=N)N` [CREATINE] and `NC(N)=NCCCC(=O)O` [4-GUANIDINOBUTANOATE] are within 1.5-fold of each other in LC retention time: 0.905 min for the first, 1.35 min for the second.

Going from `O=c1[nH]c(=O)c2ncn(C3OC(COP(=O)(O)O)C(O)C3O)c2[nH]1` (centres undefined) [XANTHOSINE-MONOPHOSPHATE] to `Cc1cn(C2OC(CO)C(O)C2O)c(=O)[nH]c1=O` (centres undefined) [RIBOTHYMIDINE], the LC retention time falls from 1.87 min to 1.24 min (1.5-fold).

`O=Cc1ccc(O)c(O)c1` [3,4-DIHYDROXYBENZALDEHYDE] and `Cc1ccc(O)c(O)c1` [4-METHYLCATECHOL] are within 1.5-fold of each other in LC retention time: 3.49 min for the first, 4.34 min for the second.

`CC(C)CC(O)C(=O)O` (centres undefined) [HYDROXYISOCAPROIC ACID] and `CC(C)C(=O)O` [ISOBUTYRATE] are within 1.5-fold of each other in LC retention time: 4.88 min for the first, 3.67 min for the second.

`Oc1ccc(C2COc3cc(O)ccc3C2)cc1` (centres undefined) [EQUOL] and `Oc1ccc(C=Cc2cc(O)cc(O)c2)cc1` [RESVERATROL] are within 1.5-fold of each other in LC retention time: 6.57 min for the first, 5.3 min for the second.

Going from `CC(C)(CO)C(O)C(=O)NCCC(=O)O` (centres undefined) [PANTOTHENATE] to `NC(CCCC(=O)O)C(=O)O` (centres undefined) [AMINOADIPATE], the LC retention time falls from 3.72 min to 0.943 min (3.9-fold).

Compared with `CC1(O)CCOC(=O)C1` (centres undefined) [MEVALOLACTONE], `CC(C)c1cc2c(c(O)c1O)C1(C(=O)O)CCCC(C)(C)C1CC2` (centres undefined) [CARNOSIC ACID] is 2.4-fold higher in LC retention time: 3.33 min for the first, 8.06 min for the second.

`O=Cc1ccc(O)cc1` [4-HYDROXYBENZALDEHYDE] and `O=C(O)c1ccc(O)cc1` [4-HYDROXYBENZOATE] are within 1.5-fold of each other in LC retention time: 4.88 min for the first, 4.37 min for the second.

`CCCCCC(=O)NCC(=O)O` [HEXANOYLGLYCINE] and `CCCCC(=O)C(=O)O` [2-KETOHEXANOIC ACID] are within 1.5-fold of each other in LC retention time: 5.2 min for the first, 4.8 min for the second.

`CC1OC(O)C(O)C(O)C1O` (centres undefined) [RHAMNOSE] and `CC(=O)Nc1ccc(OC2OC(C(=O)O)C(O)C(O)C2O)cc1` (centres undefined) [4-ACETAMIDOPHENYLGLUCURONIDE] are within 1.5-fold of each other in LC retention time: 0.913 min for the first, 1.32 min for the second.

`O=C(O)CCCCCCCCCCCCCCCO` [16-HYDROXY HEXADECANOIC ACID] and `CCCCCCCCCCCC(O)CC(=O)O` (centres undefined) [3-HYDROXYTETRADECANOIC ACID] are within 1.5-fold of each other in LC retention time: 7.82 min for the first, 8.11 min for the second.

`Nc1ncnc2c1ncn2C1OC(CO)C2OP(=O)(O)OC21` (centres undefined) [ADENOSINE 2',3'-CYCLIC PHOSPHATE] and `O=c1ccn(C2CC(O)C(CO)O2)c(=O)[nH]1` (centres undefined) [DEOXYURIDINE] are within 1.5-fold of each other in LC retention time: 2.8 min for the first, 3.27 min for the second.

Going from `Nc1ccccc1C(=O)CC(N)C(=O)O` (centres undefined) [KYNURENINE] to `O=C(O)CCc1c[nH]c2ccccc12` [INDOLE-3-PROPIONIC ACID], the LC retention time rises from 3.62 min to 6.22 min (1.7-fold).

`COc1ccc2[nH]cc(CCNC(C)=O)c2c1` [MELATONIN] and `COc1cc(CNC(=O)CCCCCCC(C)C)ccc1O` [DIHYDROCAPSAICIN] are within 1.5-fold of each other in LC retention time: 5.57 min for the first, 7.49 min for the second.

`O=c1c(-c2ccc(O)cc2)coc2cc(OC3OC(CO)C(O)C(O)C3O)cc(O)c12` (centres undefined) [GENISTIN] and `O=c1cc(-c2ccc(O)cc2)oc2cc(OC3OC(CO)C(O)C(O)C3O)cc(O)c12` (centres undefined) [COSMOSIIN] are within 1.5-fold of each other in LC retention time: 4.57 min for the first, 4.75 min for the second.

First: CC1NCCc2cc(O)c(O)cc21 (centres undefined) [SALSOLINOL]
Second: O=C(O)c1cc(=O)c2cccc(O)c2[nH]1 [XANTHURENATE]
The LC retention time of the first is 1.6-fold lower: 2.56 min for the first, 3.98 min for the second.

`O=C1Cc2ccccc2N1` [1,3-DIHYDRO-(2H)-INDOL-2-ONE] and `O=C(O)c1ccc2ccccc2n1` [2-QUINOLINECARBOXYLATE] are within 1.5-fold of each other in LC retention time: 5.06 min for the first, 4.24 min for the second.

`O=C1OCC(Cc2cccc(O)c2)C1Cc1cccc(O)c1` (centres undefined) [ENTEROLACTONE] and `COc1cc(CC2C(=O)OCC2Cc2ccc(OC)c(OC)c2)ccc1O` (centres undefined) [ARCTIGENIN] are within 1.5-fold of each other in LC retention time: 6.68 min for the first, 6.63 min for the second.

Going from `NC(CCS)C(=O)O` (centres undefined) [HOMOCYSTEINE] to `CCCCCC(N)C(=O)O` (centres undefined) [2-AMINOHEPTANOATE], the LC retention time rises from 0.963 min to 2.81 min (2.9-fold).

`O=c1cc(C2Oc3cc(O)cc(O)c3CC2O)cc2c(C3Oc4cc(O)cc(O)c4CC3O)cc(O)c(O)c2c1O` (centres undefined) [THEAFLAVIN] and `O=C(C=Cc1ccc(O)c(O)c1)OC1C(O)CC(O)(C(=O)O)CC1O` (centres undefined) [CRYPTOCHLOROGENIC ACID] are within 1.5-fold of each other in LC retention time: 5.18 min for the first, 3.67 min for the second.

`NC1CCSC1=O` (centres undefined) [HOMOCYSTEINE THIOLACTONE] and `O=C(O)C1CCCCN1` (centres undefined) [PIPECOLATE] are within 1.5-fold of each other in LC retention time: 0.939 min for the first, 1.33 min for the second.

`C=CC(C)(O)CCC1C(C)(O)CCC2C(C)(C)CCCC21C` (centres undefined) [SCLAREOL] and `CC1CCC2(C(=O)O)CCC3(C)C(=CCC4C5(C)CC(O)C(O)C(C)(CO)C5C(O)CC43C)C2C1C` (stereo not drawn) [6BETA-HYDROXYASIATIC ACID] are within 1.5-fold of each other in LC retention time: 8.18 min for the first, 7.04 min for the second.

`NC(N)=S` [THIOUREA] and `CC(=O)NC(CC(N)=O)C(=O)O` (centres undefined) [N-ACETYLASPARAGINE] are within 1.5-fold of each other in LC retention time: 0.942 min for the first, 1.1 min for the second.

Compared with `CCCCCCCC(=O)OC(CC(=O)[O-])C[N+](C)(C)C` [L-OCTANOYLCARNITINE], `CCC(=O)OC(CC(=O)[O-])C[N+](C)(C)C` (centres undefined) [PROPIONYLCARNITINE] is 6.4-fold lower in LC retention time: 5.76 min for the first, 0.894 min for the second.

`O=C(C=CC=Cc1ccc2c(c1)OCO2)N1CCCCC1` [PIPERINE] and `COc1cc(C=CC(=O)CC(=O)C=Cc2ccc(O)c(OC)c2)ccc1O` [CURCUMIN] are within 1.5-fold of each other in LC retention time: 7.22 min for the first, 7.18 min for the second.

First: CC(=O)NC(CC(=O)O)C(=O)O (centres undefined) [N-ACETYLASPARTATE]
Second: CC(CC(=O)O)C(=O)O (centres undefined) [METHYLSUCCINIC ACID]
The LC retention time of the first is 2.7-fold lower: 1.41 min for the first, 3.75 min for the second.

Going from `CC(C)=CCNc1ncnc2nc[nH]c12` [N6-(DELTA2-ISOPENTENYL)-ADENINE] to `c1ncc2[nH]cnc2n1` [PURINE], the LC retention time falls from 4.63 min to 2.2 min (2.1-fold).

Compared with `C=Cc1c(C)c2cc3[nH]c(cc4nc(cc5nc(cc1[nH]2)C(C)=C5CCC(=O)O)C(CCC(=O)O)=C4C)c(C)c3C=C` [PROTOPORPHYRIN], `O=C(O)c1cc(=O)[nH]c(=O)[nH]1` [OROTATE] is 7.7-fold lower in LC retention time: 9.14 min for the first, 1.19 min for the second.

Going from `O=C(O)C[C@H]1CC[C@@H](O)CC1` [CIS-4-HYDROXYCYCLOHEXYLACETIC ACID] to `CC12CCC(=O)C=C1CCC1C2C(O)CC2(C)C(C(=O)CO)CCC12` (centres undefined) [CORTICOSTERONE], the LC retention time rises from 4.12 min to 6.67 min (1.6-fold).

Going from `COC(=O)C=Cc1ccccc1` [METHYL CINNAMATE] to `O=C(O)C(O)CO` (centres undefined) [GLYCERATE], the LC retention time falls from 7.95 min to 0.911 min (8.7-fold).
